Test results published in patent US9232796B2, “Herbicidal compositions comprising 4-amino-3-chloro-5-fluoro-6-(4-chloro-2-fluoro-3-methoxyphenyl) pyridine-2-carboxylic acid or a derivative thereof and acetyl-CoA carboxylase (ACCase) inhibitors” (DOW AGROSCIENCES LLC, priority 2012, dated 2016).

Columns and labels:
[1] = test system: SCPJU; test: Example II in-water applied, greenhouse, transplanted paddy rice weeds; assay type: in vivo, Schoenoplectus juncoides (Roxb.) Palla
Protocol: Weed seeds or nutlets of the desired test plant species were planted in puddled soil (mud) prepared by mixing a shredded, non-sterilized mineral soil (50.5 percent silt, 25.5 percent clay, and 24 percent sand, with a pH of about 7.6 and an organic matter content of about 2.9 percent) and water at a 1:1 volumetric ratio. The prepared mud was dispensed in 365 mL aliquots into 16-ounce (oz.) non-perforated plastic pots with a surface area of 86.59 square centimeters (cm^2) leaving a headspace of 3 centimeters (cm) in each pot. Mud was allowed to dry overnight prior to planting or transplanting. Rice seeds were planted in Sun Gro MetroMix® 306 planting mixture, which typically has a pH of 6.0 to 6.8 and an organic matter content of about 30 percent, in plastic plug trays. Seedlings at the second or third leaf stage of growth were transplanted into 860 mL of mud contained in 32-oz. non-perforated plastic pots with a surface area of 86.59 cm^2 4 days prior to herbicide application. The paddy was created by filling the headspace of the pots with 2.5 to 3 cm of water. […] The plants were grown for 4-22 days in a greenhouse with an approximate 14 hr. photoperiod which was maintained at about 29° C. during the day and 26° C. during the night. Nutrients were added as Osmocote® (19:6:12, N:P:K+minor nutrients) at 2 g per 16-oz. pot and 4 g per 32-oz. pot. Water was added on a regular basis to maintain the paddy flood, and supplemental lighting was provided with overhead metal halide 1000-Watt lamps as necessary. The plants were employed for testing when they reached the first through fourth true leaf stage.
Treatments consisted of the acid or esters of 4-amino-3-chloro-5-fluoro-6-(4-chloro-2-fluoro-3-methoxy-phenyl)pyridine-2-carboxylic acid (compound A) each formulated as an SC (suspension concentrate) and various herbicidal components alone and in combination.
For formulated compounds, a measured amount was placed in an individual 100 or 200 mL glass vial and was dissolved in a volume of 1.25% (v/v) Agri-Dex® crop oil concentrate to obtain application solutions.
Applications were made by injecting with a pipetter appropriate amounts of the application solutions, individually and sequentially, into the aqueous layer of the paddy. Control plants were treated in the same manner with the solvent blank. Applications were made so that all treated plant material received the same concentrations of acetone and crop oil concentrate.
(§1) The treated plants and control plants were placed in a greenhouse as described above and water was added as needed to maintain a paddy flood. After approximately 3 weeks the condition of the test plants as compared with that of the untreated plants was determined visually and scored on a scale of 0 to 100 percent where 0 corresponds to no injury or growth inhibition and 100 corresponds to complete kill.
(§2) Colby's equation was used to determine the herbicidal effects expected from the mixtures (Colby, S. R. 1967. Calculation of the synergistic and antagonistic response of herbicide combinations. Weeds 15:20-22.).
(§3) The following equation was used to calculate the expected activity of mixtures containing two active ingredients, A and B: Expected=A+B−(A×B/100)

[2] = test system: LOLMU; test: Example III postemergence foliar-applied, greenhouse, weeds common to row crops such as corn and soybeans; assay type: in vivo, Lolium multiflorum Lam.
From the text: Seeds or nutlets of the desired test plant species were planted in a soil matrix prepared by mixing a loam or sandy loam soil (e.g., 28.6 percent silt, 18.8 percent clay, and 52.6 percent sand, with a pH of about 5.8 and an organic matter content of about 1.8 percent) and calcareous grit in an 80 to 20 ratio. The soil matrix was contained in plastic pots with a surface area of 84.6 square centimeters (cm^2) and a volume of 560 cubic centimeters (cm^3). When required to ensure good germination and healthy plants, a fungicide treatment and/or other chemical or physical treatment was applied. The plants were grown for 7-31 days (d) in a greenhouse with an approximate 15 hour (h) photoperiod which was maintained at about 23-29° C. during the day and 22-28° C. during the night. Nutrients (Peters Excel® 15-5-15 5-Ca 2-Mg) and water were added on a regular basis and supplemental lighting was provided with overhead metal halide 1000-Watt lamps as necessary. The plants were employed for testing when they reached the first, second, or third true leaf stage.
Treatment requirements were calculated based upon the rates being tested, the concentration of active ingredient or acid equivalent in the formulation, and a 12 mL application volume at a rate of 187 L/ha.
Treatments consisted of the acid or esters of 4-amino-3-chloro-5-fluoro-6-(4-chloro-2-fluoro-3-methoxy-phenyl)pyridine-2-carboxylic acid (Compound A), each formulated as an SC (suspension concentrate), and various herbicidal components alone and in combination.
Other herbicidal components were applied on an acid equivalent basis and included acetyl coA carboxylase (ACCase)-inhibiting herbicide (cyclohexanedione and aryloxyphenoxypropionate chemical classes) quizalofop-p-ethyl formulated as Assure® II.
All stock solutions and applications solutions were visually inspected for compound compatibility prior to application. Compound requirements are based upon a 12 mL application volume at a rate of 187 liters per hectare (L/ha). Formulated compounds were applied to the plant material with an overhead Mandel track sprayer equipped with 8002E nozzles calibrated to deliver 187 L/ha over an application area of 0.503 square meters (m^2) at a spray height of 18 to 20 inches (46 to 50 cm) above the average plant canopy height. Control plants were sprayed in the same manner with the solvent blank.
as §1, with “watered by sub-irrigation” for “water was added as needed”, “prevent wash-off of the test compounds.” for “maintain a paddy flood.”, “2 weeks,” for “3 weeks”
as §2, §3

COc1c(Cl)ccc(-c2nc(C(=O)O)c(Cl)c(N)c2F)c1F [Compound A Acid, 4-amino-3-chloro-6-(4-chloro-2-fluoro-3-methoxyphenyl)-5-fluoropyridine-2-carboxylic acid]
Visual Weed Control (%) - 25 DAA SCPJU Obs ([1]; 8.75 gae/ha in-water): 65% | Visual Weed Control (%) - 25 DAA SCPJU Obs ([1]; 17.5 gae/ha in-water): 80% | Visual Weed Control (%) - 25 DAA SCPJU Obs ([1]; 35 gae/ha in-water): 95% | Visual Weed Control (%) - 20 DAA SCPJU Obs ([1]; in-water, 8.75 gae/ha): 70% | Visual Weed Control (%) - 21 DAA SCPJU Obs ([1]; in-water, 8.75 gae/ha): 65% | Visual Weed Control (%) - 22 DAA SCPJU Obs ([1]; in-water, 16 gae/ha): 70% | Visual Weed Control (%) - 20 DAA SCPJU Obs ([1]; in-water, 17.5 gae/ha): 95% | Visual Weed Control (%) - 21 DAA SCPJU Obs ([1]; in-water, 17.5 gae/ha): 90% | Visual Weed Control (%) - 20 DAA SCPJU Obs ([1]; in-water, 35 gae/ha): 95% | Visual Weed Control (%) - 14 DAA LOLMU Obs ([2]; Compound A Acid 3.75 gae/ha): 0% | Visual Weed Control (%) - 14 DAA LOLMU Obs ([2]; Compound A Acid 7.5 gae/ha): 10% | Visual Weed Control (%) - 14 DAA LOLMU Obs ([2]; Compound A Acid 15 gae/ha): 10%

COc1c(Cl)ccc(-c2nc(C(=O)OCc3ccccc3)c(Cl)c(N)c2F)c1F [Compound A Benzyl Ester, benzyl ester of 4-amino-3-chloro-5-fluoro-6-(4-chloro-2-fluoro-3-methoxy-phenyl)pyridine-2-carboxylic acid]
Visual Weed Control (%) - 21 DAA SCPJU Obs ([1]; in-water, 4.38 gae/ha): 70% | Visual Weed Control (%) - 14 DAA LOLMU Obs ([2]; Compound A Benzyl Ester 3.75 gae/ha): 0% | Visual Weed Control (%) - 14 DAA LOLMU Obs ([2]; Compound A Benzyl Ester 7.5 gae/ha): 10% | Visual Weed Control (%) - 14 DAA LOLMU Obs ([2]; Compound A Benzyl Ester 15 gae/ha): 10%

CCCCOC(=O)[C@@H](C)Oc1ccc(Oc2ccc(C#N)cc2F)cc1 [Cyhalofop-butyl, butyl(2R)-2-[4-(4-cyano-2-fluorophenoxy)phenoxy]propanoate, reference compound]
Visual Weed Control (%) - 25 DAA SCPJU Obs ([1]; 90 gai/ha, in-water): 0% | Visual Weed Control (%) - 25 DAA SCPJU Obs ([1]; 180 gai/ha, in-water): 0%

C[C@@H](Oc1ccc(Oc2nc3ccc(Cl)cc3o2)cc1)C(=O)N(C)c1ccccc1F [Metamifop, (2R)-2-[4-[(6-chloro-2-benzoxazolyl)oxy]phenoxy]-N-(2-fluorophenyl)-N-methylpropanamide]
Visual Weed Control (%) - 21 DAA SCPJU Obs ([1]; in-water, 75 gai/ha): 0% | Visual Weed Control (%) - 21 DAA SCPJU Obs ([1]; in-water, 150 gai/ha): 0%

CCC/C(=N\OCC(C)Oc1ccc(Cl)cc1)C1=C(O)CC(C2CCCSC2)CC1=O (stereo not drawn) [Profoxydim, 2-[1-[[2-(4-chlorophenoxy)propoxy]imino]butyl]-3-hydroxy-5-(tetrahydro-2H-thiopyran-3-yl)-2-cyclohexen-1-one, reference compound]
Visual Weed Control (%) - 22 DAA SCPJU Obs ([1]; in-water, 50 gai/ha): 0% | Visual Weed Control (%) - 22 DAA SCPJU Obs ([1]; in-water, 100 gai/ha): 0%

CCOC(=O)[C@@H](C)Oc1ccc(Oc2cnc3cc(Cl)ccc3n2)cc1 [Quizalofop-p-ethyl, ethyl(2R)-2-[4-[(6-chloro-2-quinoxalinyl)oxy]phenoxy]propanoate, reference compound]
Visual Weed Control (%) - 14 DAA LOLMU Obs ([2]; Quizalofop-p-ethyl 3.56 gae/ha): 0% | Visual Weed Control (%) - 14 DAA LOLMU Obs ([2]; Quizalofop-p-ethyl 7.125 gae/ha): 60%
